Measured values as given in publication PMC7070733 (Molecules, 2020).
Values after ≈ are worked out from the molar mass of the structure shown. Values joined by “and” are separate entries in the source; they are usually repeats but may differ in a detail not shown here. Equal values may be shown once. “Also recorded” adds a separate entry of the source.

Legend:
C. perfringens NA = format: biochemical; conditions: for IC50 NA-C. perfringens / IC50: MUNANA substrate; for IC50 NA-C. perfringens: nd = no detection
H1N1 NA = H1N1 NA (Influenza A virus, UniProt Q9IGQ6); assay: biochemical; format: biochemical
[1] = test system: influenza virus replication; design: method as in PMID 16137775; conditions: in vitro; cited from earlier work
[2] = test system: endonuclease activity of RNA polymerase in influenza A virus; design: method as in earlier work; conditions: ref 40 (Kuzuhara et al. 2009); cited from earlier work

Sequence of H1N1 NA (Q9IGQ6 whole entry, looked up): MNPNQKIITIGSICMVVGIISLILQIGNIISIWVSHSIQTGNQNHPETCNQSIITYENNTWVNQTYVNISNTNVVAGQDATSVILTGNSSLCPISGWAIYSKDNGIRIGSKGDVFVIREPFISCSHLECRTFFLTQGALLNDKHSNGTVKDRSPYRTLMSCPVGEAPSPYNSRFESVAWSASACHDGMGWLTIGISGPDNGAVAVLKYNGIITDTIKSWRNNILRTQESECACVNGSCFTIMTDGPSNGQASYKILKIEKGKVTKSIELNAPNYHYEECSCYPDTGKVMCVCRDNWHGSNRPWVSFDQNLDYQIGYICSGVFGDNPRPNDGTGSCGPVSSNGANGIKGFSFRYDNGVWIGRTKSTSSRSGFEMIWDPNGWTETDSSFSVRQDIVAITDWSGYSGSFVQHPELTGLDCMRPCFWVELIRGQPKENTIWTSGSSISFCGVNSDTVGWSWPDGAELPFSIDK

Row | SMILES | IC50 NA-C. perfringens (C. perfringens NA) | activity against H1N1 NA (in words) (H1N1 NA) | activity against C. perfringens NA (in words) (C. perfringens NA) | IC50 (H1N1 NA; IC50 NA-H1N1) [µM] | melting point [°C] | maximum inhibition against C. perfringens-NA (C. perfringens NA) [%] | IC50 (C. perfringens NA) [µM] | IC50 (H1N1 NA; IC50 H1N1 NA) [µM] | inhibition of influenza virus replication (in words) [1] | inhibition of endonuclease activity of RNA polymerase (in words) [2]
1 | CC(=O)N[C@H]1[C@H]([C@H](O)[C@H](O)CO)OC(C(=O)O)=C[C@@H]1O [DANA, 2,3-didehydro-2-deoxy-N-acetylneuraminic acid, reference compound] | 28.79 µg/mL (≈ 98.8 µM) | – | – | – | – | – | – | – | – | –
2 | C[C@H]1C(=O)CC[C@@H]2[C@]1(C)CC[C@H]1[C@@]2(C)CC[C@@]2(C)[C@@H]3CC(C)(C)CC[C@]3(C)CC[C@]12C [GC1, Friedeline] | – | inactive | not active | – | – | – | – | – | – | –
3 | COC(=O)/C(C)=C/C(O)CC(C)C1(C)CC=C2C3CCC4C(C)(C)C(O)CCC4(C)C3(O)CCC21C (stereo not drawn) [GC2, Methyl (24E)-3a,9,23-trihydroxy-17,14-friedolanostan-14,24-dien-26-oate] | 81.78 µg/mL and 81.72 µg/mL | did not show any significant activity; also recorded: less active | less active; also recorded: satisfactory inhibition | 1920 | 130 to 135 | 79 | 123 | – | – | –
4 | Oc1cc(O)c2c(c1)OC(c1ccc(O)c(O)c1)C(O)C2 (stereo not drawn) [GC4, catechin] | 17.48 µg/mL (≈ 60.2 µM) | moderately active; also recorded: moderate activity | moderately active; also recorded: moderate activity | 90.6 | – | – | 60.3 | 91 | good inhibition | inhibited
